The record followed here is US20100056515A1, “BENZIMIDAZOLE COMPOUNDS” (priority 2006, published 2010).

Data set [1] addresses T1, human CRF receptor (Homo sapiens, UniProt P34998).
T1 construct: expressed in transfected cells; host or cells: CHO cells (membrane fraction)
T1 sequence (P34998 24-415): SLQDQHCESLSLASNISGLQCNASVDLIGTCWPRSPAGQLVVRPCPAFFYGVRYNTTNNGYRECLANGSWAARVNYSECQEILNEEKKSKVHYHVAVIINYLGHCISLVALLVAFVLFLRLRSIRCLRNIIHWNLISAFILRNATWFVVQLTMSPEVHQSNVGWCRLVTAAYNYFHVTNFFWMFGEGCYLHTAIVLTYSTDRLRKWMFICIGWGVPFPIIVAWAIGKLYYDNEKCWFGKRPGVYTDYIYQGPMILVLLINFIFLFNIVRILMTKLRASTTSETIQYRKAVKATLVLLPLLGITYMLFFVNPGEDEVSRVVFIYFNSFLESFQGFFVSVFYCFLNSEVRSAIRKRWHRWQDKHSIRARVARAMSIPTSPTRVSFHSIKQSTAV
In words: Measurement of CRF Binding Inhibitory Rate (receptor binding experiment with 125I-CRF). The conditions noted are these: human CRF receptor expressing CHO cellular membrane fraction; 50 pM ovine 125I-CRF; 0.05 nM to 10 μM of compound; room temperature 1.5 hr; read-out: IC50 values (CRF binding inhibition). How it is done:
Measurement of CRF Binding Inhibitory Rate
A receptor binding experiment was carried out using a human CRF receptor expressing CHO cellular membrane fraction and ovine CRF, [^125I]-tyr^0(^125I-CRF). 1000 nM of a test compound was incubated with 1 μg of human CRF receptor expressing CHO cellular membrane fraction and 50 pM of ^125I-CRF in a binding assay buffer (50 mM Tris-HCl, 5 mM EDTA, 10 mM MgCl2, 0.05% CHAPS, 0.1% BSA, 0.5 mM PMSF, 0.1 μg/mL pepstatin, 20 μg/mL leupeptin, pH 7.5). In addition, for measuring nonspecific binding (NSB), 0.1 μM unlabelled human Urocortin was incubated with 5 μg of human CRF receptor expressing CHO cellular membrane fraction and 50 pM of ^125I-CRF in a binding assay buffer. After a binding reaction was carried out at room temperature for 1.5 hr, the membrane was entrapped on a glass filter (UniFilter plate GF-C/Perkin Elmer) by suction filtration using a cell harvester (Perkin Elmer), and washed with ice-cooled 50 mM Tris-HCl (pH 7.5). After drying the glass filter, a liquid scintillation cocktail (Microscinti 0, Perkin Elmer) was added, and the radioactivity of ^125I-CRF remaining on a glass filter was measured using Topcount (Perkin Elmer).
(TB-SB)/(TB-NSB)×100 (SB: radioactivity when a compound is added, TB: maximum binding radioactivity, NSB: nonspecific binding radioactivity) were calculated to obtain binding inhibitory rates under the range of the presence from 0.05 nM to 10 μM of each compounds. The IC50 values were calculated by using GraphPad Prism software.

Molecules are shown by their SMILES.

By melting point is commonly meant the temperature, or range, at which the solid turns liquid. In general, IC50 refers to the concentration that inhibits the measured activity by half.

On to `CCC(CC)c1ccc(Cl)c2nc(Oc3c(C)cc(C(C)=O)cc3Cl)n(C)c12` [Example 35, 1-(3-Chloro-4-{[4-chloro-7-(1-ethylpropyl)-1-methyl-1H-benzimidazol-2-yl]oxy}-5-methylphenyl)ethanone], for which the melting point was in the range of 160 to 161 °C. The IC50 in data set [1] is less than 1000 nM.

Take `CCC(CC)c1ccc(Cl)c2nc(Oc3c(C)cc(SC)cc3Cl)n(C)c12` [Example 36, 4-Chloro-2-[2-chloro-6-methyl-4-(methylthio)phenoxy]-7-(1-ethylpropyl)-1-methyl-1H-benzimidazole]: the melting point lay within 141 to 143 °C. Besides, the IC50 in data set [1] was less than 1000 nM.

Regarding `CCC(CC)c1ccc(Cl)c2nc(Oc3c(C)cc([S+](C)[O-])cc3Cl)n(C)c12` (stereo not drawn) [Example 37, 4-Chloro-2-[2-chloro-6-methyl-4-(methylsulfinyl)phenoxy]-7-(1-ethylpropyl)-1-methyl-1H-benzimidazole], the melting point was 182 to 184 °C. In data set [1], the IC50 is less than 1000 nM.

Turning to `CCC(CC)c1ccc(Cl)c2nc(Oc3c(C)cc(S(C)(=O)=O)cc3Cl)n(C)c12` [Example 38, 4-Chloro-2-[2-chloro-6-methyl-4-(methylsulfonyl)phenoxy]-7-(1-ethylpropyl)-1-methyl-1H-benzimidazole], the melting point was 199 to 200 °C. In data set [1], the IC50 was less than 1000 nM.

Regarding `CCC(CC)c1ccc(Cl)c2nc(Oc3c(C)cc(S(N)(=O)=O)cc3Cl)n(C)c12` [Example 40, 3-Chloro-4-{[4-chloro-7-(1-ethylpropyl)-1-methyl-1H-benzimidazol-2-yl]oxy}-5-methylbenzenesulfonamide], the melting point lay within 293 to 294 °C. Also, the IC50 in data set [1] is less than 1000 nM.

For `CCC(CC)c1ccc(Cl)c2nc(Oc3c(Cl)cc(OC(F)(F)F)cc3SC)n(C)c12` [Example 42, 4-Chloro-2-[2-chloro-6-(methylthio)-4-(trifluoromethoxy)phenoxy]-7-(1-ethylpropyl)-1-methyl-1H-benzimidazole], the melting point lay within 138 to 139 °C. The IC50 in data set [1] was less than 1000 nM.

`CCC(CC)c1ccc(Cl)c2nc(Oc3c(Cl)cc(OC(F)(F)F)cc3[S+](C)[O-])n(C)c12` (stereo not drawn) [Example 43, 4-Chloro-2-[2-chloro-6-(methylsulfinyl)-4-(trifluoromethoxy)phenoxy]-7-(1-ethylpropyl)-1-methyl-1H-benzimidazole] showed a melting point of 150 to 151 °C. Also, in data set [1], the half-inhibitory concentration (IC50) is less than 1000 nM.

The molecule `CCC(CC)c1ccc(Cl)c2nc(Oc3c(Cl)cc(OC(F)(F)F)cc3S(C)(=O)=O)n(C)c12` [Example 44, 4-Chloro-2-[2-chloro-6-(methylsulfonyl)-4-(trifluoromethoxy)phenoxy]-7-(1-ethylpropyl)-1-methyl-1H-benzimidazole] displayed a melting point of 164 to 165 °C. The IC50 in data set [1] was less than 1000 nM.

For the molecule `CCC(CC)c1ccc(Cl)c2nc(Nc3c(C)cc(SC)cc3OC)n(C)c12` [Example 45, 4-Chloro-7-(1-ethylpropyl)-N-[2-methoxy-6-methyl-4-(methylthio)phenyl]-1-methyl-1H-benzimidazol-2-amine], the melting point was in the range of 223 to 225 °C. For the same molecule, the IC50 in data set [1] is less than 1000 nM.

With `CCC(CC)c1ccc(Cl)c2nc(Nc3c(C)cc(Cl)cc3SC)n(C)c12` [Example 50, 4-Chloro-N-[4-chloro-2-methyl-6-(methylthio)phenyl]-7-(1-ethylpropyl)-1-methyl-1H-benzimidazol-2-amine], the melting point fell in the range of 167 to 169 °C. Also, in data set [1], the IC50 is less than 1000 nM.

Molecule `CCC(CC)c1ccc(Cl)c2nc(Nc3c(C)cc(Cl)cc3[S+](C)[O-])n(C)c12` (stereo not drawn) [Example 51, 4-Chloro-N-[4-chloro-2-methyl-6-(methylsulfinyl)phenyl]-7-(1-ethylpropyl)-1-methyl-1H-benzimidazol-2-amine] displayed a melting point of 212 to 213 °C. The IC50 in data set [1] was less than 1000 nM.

For `CCC(CC)c1ccc(Cl)c2nc(Oc3c(OC)cc(C)nc3N(C)C)n(C)c12` [Example 52, 3-{[4-Chloro-7-(1-ethylpropyl)-1-methyl-1H-benzimidazol-2-yl]oxy}-4-methoxy-N,N,6-trimethylpyridin-2-amine], the melting point was 202 to 203 °C. In addition, the IC50 in data set [1] is less than 1000 nM.

`CCC(CC)c1ccc(Cl)c2nc(Oc3c(Cl)cc(Cl)c4c3CN(C)C4)n(C)c12` [Example 55, 4-Chloro-2-[(5,7-dichloro-2-methyl-2,3-dihydro-1H-isoindol-4-yl)oxy]-7-(1-ethylpropyl)-1-methyl-1H-benzimidazole] yielded a melting point of 148 to 149 °C. Further, the IC50 in data set [1] is less than 1000 nM.

On to `CCC(CC)c1ccc(Cl)c2nc(Oc3c(OC)cc(C(F)(F)F)nc3C)n(C)c12` [Example 56, 4-Chloro-7-(1-ethylpropyl)-2-{[4-methoxy-2-methyl-6-(trifluoromethyl)pyridin-3-yl]oxy}-1-methyl-1H-benzimidazole], for which the melting point fell in the range of 178 to 179 °C. Further, in data set [1], the IC50 is less than 1000 nM.

In turn, `CCC(CC)c1ccc(Br)c2nc(Oc3c(C)cc(Cl)cc3Cl)n(C)c12` [Example 70, 4-Bromo-2-(2,4-dichloro-6-methylphenoxy)-7-(1-ethylpropyl)-1-methyl-1H-benzimidazole] gave a melting point of 146 to 147 °C. Also, the IC50 in data set [1] is less than 1000 nM.

In turn, `CCC(CC)c1ccc(Cl)c2nc(Oc3c(Br)cc(Br)nc3C)n(C)c12` [Example 74, 4-Chloro-2-[(4,6-dibromo-2-methylpyridin-3-yl)oxy]-7-(1-ethylpropyl)-1-methyl-1H-benzimidazole] came in with a melting point of 202 to 203 °C. The half-inhibitory concentration (IC50) in data set [1] was less than 1000 nM.

On to `CCC(CC)c1ccc(OC)c2nc(Oc3c(Cl)cc(Cl)cc3CN(C)C)n(C)c12.Cl` [Example 77, 1-(3,5-Dichloro-2-{[7-(1-ethylpropyl)-4-methoxy-1-methyl-1H-benzimidazol-2-yl]oxy}phenyl)-N,N-dimethylmethanamine], for which the melting point lay in the range of 169 to 170 °C. For the same molecule, the 50% inhibitory concentration (IC50) in data set [1] was less than 1000 nM.

`CCC(CC)c1ccc(Cl)c2nc(Oc3c(Cl)cc(Cl)cc3CN3CCCC3)n(C)c12` [Example 78, 4-Chloro-2-[2,4-dichloro-6-(pyrrolidin-1-ylmethyl)phenoxy]-7-(1-ethylpropyl)-1-methyl-1H-benzimidazole] had a melting point of 122 to 123 °C. Further, the half-maximal inhibitory concentration (IC50) in data set [1] is less than 1000 nM.

`CCC(CC)c1ccc(OC)c2nc(Oc3c(Cl)cc(Cl)cc3CN3CCCC3)n(C)c12.Cl` [Example 79, 2-[2,4-Dichloro-6-(pyrrolidin-1-ylmethyl)phenoxy]-7-(1-ethylpropyl)-4-methoxy-1-methyl-1H-benzimidazole] came in with a melting point of 183 to 185 °C. The IC50 in data set [1] was less than 1000 nM.

`CCC(CC)c1ccc(OC)c2nc(Oc3c(Cl)cc(Cl)cc3CN3CCCC3C)n(C)c12.Cl` (stereo not drawn) [Example 80, 2-{2,4-Dichloro-6-[(2-methylpyrrolidin-1-yl)methyl]phenoxy}-7-(1-ethylpropyl)-4-methoxy-1-methyl-1H-benzimidazole] registered a melting point of 171 to 173 °C. Moreover, the IC50 in data set [1] is less than 1000 nM.

`CCC(CC)c1ccc(OC)c2nc(Oc3c(F)cc(Br)cc3Cl)n(C)c12` [Example 81, 2-(4-Bromo-2-chloro-6-fluorophenoxy)-7-(1-ethylpropyl)-4-methoxy-1-methyl-1H-benzimidazole] showed a melting point of 129 to 131 °C. Further, the half-maximal inhibitory concentration (IC50) in data set [1] was less than 1000 nM.
